Literature values as cited in US20110009373A1, “COMPOSITION COMPRISING A COMBINATION OF AN AROMATASE INHIBITOR, A PROGESTIN AND AN OESTROGEN AND ITS USE FOR THE TREATMENT OF ENDOMETRIOSIS” (ASTRAZENECA AB, priority 2003, published 2011).

System: endometriotic lesion
Conditions: addition of oestrogen to letrozole; wild type mice and aromatase knockout mice

N#Cc1ccc(C(c2ccc(C#N)cc2)n2cncn2)cc1 [letrozole]
Endometriotic lesion sizes: increases in the endometriotic lesion sizes
